Measurements reported in ChEMBL document CHEMBL1201862, “PubChem BioAssay data set” (2004).
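These data come from cells grown in 96-well plates and exposed to compound for 48 hours at five concentrations. GI50 marks 50% less growth.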 Calls of active or inactive are those of the source. Cut-off read from the data, not from the text of the source: active = GI50 up to about 1.1 µM and inactive = higher.

How the values were obtained:
Test in all cases: DTP human tumour cell line panel, 48 h
A549 = tested on: A549
KM12 = tested on: KM12
NCI-H226 = tested on: NCI-H226
SN12C = tested on: SN12C
NCI/ADR-RES = tested on: NCI/ADR-RES
HOP-62 = tested on: HOP-62
U-251 = tested on: U-251
UACC-62 = tested on: UACC-62
NCI-H23 = tested on: NCI-H23
SF-539 = tested on: SF-539
K562 = tested on: K562
Hs-578T = tested on: Hs-578T
CAKI-1 = tested on: CAKI-1
MCF7 = tested on: MCF7
SK-MEL-5 = tested on: SK-MEL-5
RXF 393 = tested on: RXF 393
SK-MEL-28 = tested on: SK-MEL-28
MDA-MB-435 = tested on: MDA-MB-435
CCRF-CEM = tested on: CCRF-CEM
NCI-H460 = tested on: NCI-H460
UACC-257 = tested on: UACC-257
DU-145 = tested on: DU-145
M14 = tested on: M14
OVCAR-5 = tested on: OVCAR-5
SNB-19 = tested on: SNB-19
IGROV-1 = tested on: IGROV-1
Malme-3M = tested on: Malme-3M
HCT-15 = tested on: HCT-15
HL-60 = tested on: HL-60
COLO 205 = tested on: COLO 205
786-0 = tested on: 786-0
HT-29 = tested on: HT-29
PC-3 = tested on: PC-3
SF-268 = tested on: SF-268
MDA-N = tested on: MDA-N
UO-31 = tested on: UO-31
RPMI-8226 = tested on: RPMI-8226
OVCAR-4 = tested on: OVCAR-4
HOP-92 = tested on: HOP-92
SNB-75 = tested on: SNB-75
BT-549 = tested on: BT-549
NCI-H522 = tested on: NCI-H522
LOX IMVI = tested on: LOX IMVI
SK-OV-3 = tested on: SK-OV-3
OVCAR-3 = tested on: OVCAR-3
SF-295 = tested on: SF-295
MOLT-4 = tested on: MOLT-4
T47D = tested on: T47D
ACHN = tested on: ACHN
SW-620 = tested on: SW-620
TK-10 = tested on: TK-10
OVCAR-8 = tested on: OVCAR-8
SK-MEL-2 = tested on: SK-MEL-2
MDA-MB-231 = tested on: MDA-MB-231
SR = tested on: SR
HCT-116 = tested on: HCT-116
A498 = tested on: A498
EKVX = tested on: EKVX

## Nc1ccc(C(=O)O)cc1.Nc1nc(N)c2nc[nH]c2n1
A549
  GI50: 13.3 µM (inactive)
KM12
  GI50: 22.3 µM (inactive)
NCI-H226
  GI50: > 100 µM (inactive)
SN12C
  GI50: 39 µM (inactive)
NCI/ADR-RES
  GI50: 38.5 µM (inactive)
HOP-62
  GI50: 20.7 µM (inactive)
U-251
  GI50: 43.9 µM (inactive)
UACC-62
  GI50: 11.1 µM (inactive)
NCI-H23
  GI50: 23.5 µM (inactive)
SF-539
  GI50: > 100 µM (inactive)
K562
  GI50: 20 µM (inactive)
Hs-578T
  GI50: > 100 µM (inactive)
CAKI-1
  GI50: 13.6 µM (inactive)
MCF7
  GI50: 3.97 µM (inactive)
SK-MEL-5
  GI50: 21.5 µM (inactive)
RXF 393
  GI50: 12.1 µM (inactive)
SK-MEL-28
  GI50: 33 µM (inactive)
MDA-MB-435
  GI50: 12.2 µM (inactive)
CCRF-CEM
  GI50: 19.6 µM (inactive)
NCI-H460
  GI50: 21.6 µM (inactive)
UACC-257
  GI50: 17.5 µM (inactive)
DU-145
  GI50: 13.8 µM (inactive)
M14
  GI50: 10.7 µM (inactive)
OVCAR-5
  GI50: 17.1 µM (inactive)
SNB-19
  GI50: 40.7 µM (inactive)
IGROV-1
  GI50: 29.9 µM (inactive)
Malme-3M
  GI50: 69.2 µM (inactive)
HCT-15
  GI50: 28.8 µM
HL-60
  GI50: 31.4 µM (inactive)
COLO 205
  GI50: 25.9 µM (inactive)
786-0
  GI50: 26.7 µM (inactive)
HT-29
  GI50: 20.4 µM (inactive)
PC-3
  GI50: 22.3 µM (inactive)
SF-268
  GI50: 60.8 µM (inactive)
MDA-N
  GI50: 13.9 µM (inactive)
UO-31
  GI50: 11.3 µM (inactive)
RPMI-8226
  GI50: 12.1 µM (inactive)
OVCAR-4
  GI50: 26.4 µM (inactive)
HOP-92
  GI50: 79.3 µM (inactive)
SNB-75
  GI50: 2.44 µM (inactive)
BT-549
  GI50: 78 µM (inactive)
NCI-H522
  GI50: 17.8 µM (inactive)
LOX IMVI
  GI50: 24.7 µM (inactive)
SK-OV-3
  GI50: 34.8 µM (inactive)
OVCAR-3
  GI50: 19.1 µM (inactive)
SF-295
  GI50: 25 µM (inactive)
MOLT-4
  GI50: 41.4 µM (inactive)
T47D
  GI50: 3.27 µM (inactive)
ACHN
  GI50: 17 µM (inactive)
SW-620
  GI50: 25.7 µM (inactive)
TK-10
  GI50: 19.8 µM (inactive)
OVCAR-8
  GI50: 22.1 µM (inactive)
SK-MEL-2
  GI50: 22.9 µM (inactive)
MDA-MB-231
  GI50: 45.4 µM (inactive)
SR
  GI50: 33.2 µM (inactive)
HCT-116
  GI50: 15.2 µM (inactive)
A498
  GI50: 13.6 µM (inactive)
EKVX
  GI50: 14.5 µM (inactive)
